Entries after “also recorded” stand apart in the source; their conditions may differ. Where a SMILES comes first, the peptide text is derived from it.
Legend:
Escherichia coli = conditions: concentrations up to 100 µM; cited from earlier work
caspase-3 = experiment: Western blot of caspase-3 in SH-SY5Y cells; assay type: cell-based, human; conditions: triplicates
Method: (§1) In contrast, the β-gB1-treated cells increased the expression of the LC3B-II isoform by 2.8-fold. […] In addition, the β-gB1-treated cells increased the BECN1 expression by 1.5-fold (Figure 2A,B).
(§2) Rat cardio-myoblast cells (H9c2) and […] neuron-like SH-SY5Y cells were purchased from ATCC and maintained in DMEM (Dulbecco’s modified eagle medium) medium supplemented with 10% fetal bovine serum (FBS), 10,000 U/mL of penicillin, and 10,000 µg/mL of streptomycin at 37 °C, 5% CO2.
(§3) A 25 µg equivalent quantity of each protein samples were resolved on a 10% and 15% SDS-PAGE gel accordingly and transferred onto a nitrocellulose membrane. Immunoblotting was performed using anti-protein antibodies against glyceraldehyde 3-phosphate dehydrogenase (GAPDH) (1:5000), LC3B (1:1500), Beclin-1 (1:1500), Caspase-3 (1:1500), and Caspase-9 (1:1500). Blots were developed with Clarity Max Western ECL blotting substrates. Protein bands were quantitated densitometrically using ImageJ software (ImageJ15.0b, Wayen Rasband, NIH, Bethesda, Maryland, USA), expressed relative to GAPDH, and normalized to the vehicle control cells. Statistical calculations and bar graphs were done using GraphPad Prism software (Version 6.01), and three individual experimental data sets were used for the calculation. Data are presented as means ± SD and compared by the Holm–Sidak multiple t-tests method. […]

H9c2 cells [1] = experiment: LDH release cytotoxicity assay, H9c2; assay type: cell-based, rat; conditions: H9c2, 10 µM peptide, 48 h, 37 °C; LDH kit, 450 nm; triplicates
From the text: (§4) In addition, β-gB1 is non-toxic to Vero and BHK (baby hamster kidney) cell lines based on an MTT assay. […] LDH is a cytoplasmic enzyme which is rapidly released into the cell culture medium upon plasma membrane damage and is widely used as a marker for cytotoxicity. Thus, an LDH-release assay measures the level of plasma membrane damage to a cell population.
as §2
(§5) An LDH release assay was performed using the CytoSelect™ LDH cytotoxicity assay kit (CBA-241, Cell Biolabs, Inc., San Diego, CA, USA). In brief, cells were cultured in DMEM with or without 10 µM of β-gB1 and S-alkylated β-gB1 (β-gB1Alk) for 48 h at 37 °C and 5% CO2. PBS was used for the vehicle control experiment. The culture medium was transferred and mixed with the LDH assay reagent in a ratio of 9:1. The reaction mixture was incubated at 37 °C for 2 h, and colorimetric quantification was performed using a 450 nm wavelength. The assay was performed in experimental triplicates, and statistical calculations and bar graphs were done using GraphPad Prism software (Version 6.01). […]

H9c2 cells [2] = experiment: MTT-based cell proliferation assay under normoxia, H9c2; design: species or system rat; conditions: H9c2, 10 µM peptide, 48 h, triplicates
From the text: as §4, §2
(§6) Cells were cultured in DMEM with or without β-gB1/S-alkylated β-gB1 (β-gB1Alk) for 48 h under normoxia, hypoxia, and hypoxia-reoxygenation conditions. Phosphate-buffered saline (PBS) was used as a vehicle control. After 48 h, MTT (3-(4,5-dimethylthiazol-2-yl)-2,5-diphenyltetrazolium bromide) reagent was added with a final concentration of 0.5 mg/mL, and it was incubated at 37 °C for 2 h. The culture medium was then aspirated, and purple formazan crystals were dissolved in DMSO for colorimetric quantification at 570 nm using a microplate reader with a reference wavelength of 630 nm. […]

SH-SY5Y cells [3] = experiment: MTT-based cell proliferation assay under normoxia, SH-SY5Y; design: species or system human; conditions: 10 µM peptide, 48 h, triplicates
From the text: as §4, §2, §6

LC3B = experiment: Western blot of autophagy marker LC3B (LC3B-I, LC3B-II) in SH-SY5Y cells; assay type: cell-based, human; conditions: triplicates
Method: The LIR-containing proteins regulate autophagosome formation by interacting with the protein Atg8 (autophagy-related gene, Atg) family through their LIR sequences. […] The SH-SY5Y cells were cultured with or without β-gB1. The autophagy markers, Beclin-1 (BECN1), LC3B-I, and LC3B-II, were identified and quantified by western blot analysis. Beclin-1 plays an important role in regulating both autophagy and cell death, whereas LC3B is an important component of the autophagy pathway and the most widely used marker for autophagosomes. Two of the processed LC3B protein are LC3B-I and LC3B-II. LC3B-I is a truncated LC3B. In contrast, LC3B-II is a truncated and lipidated version of LC3B-I [28, 29]. Importantly, LC3B-II is centrally involved in the events of autophagosome membrane expansion and fusion.
as §2
A 25 µg equivalent quantity of each protein samples were resolved on a 10% and 15% SDS-PAGE gel accordingly and transferred onto a nitrocellulose membrane. Immunoblotting was performed using anti-protein antibodies against glyceraldehyde 3-phosphate dehydrogenase (GAPDH) (1:5000), LC3B (1:1500), Beclin-1 (1:1500), Caspase-3 (1:1500), and Caspase-9 (1:1500). Blots were developed with Clarity Max Western ECL blotting substrates. Protein bands were quantitated densitometrically using ImageJ software (ImageJ15.0b, Wayen Rasband, NIH, Bethesda, Maryland, USA), expressed relative to GAPDH, and normalized to the vehicle control cells. Statistical calculations and bar graphs were done using GraphPad Prism software (Version 6.01), and three individual experimental data sets were used for the calculation. Data are presented as means ± SD and compared by the Holm–Sidak multiple t-tests method. P-values pf less than 0.05 were considered significant.

H9c2 cells [4] = experiment: Hypoxia-reoxygenation injury, MTT assay, H9c2; assay type: cell-based, rat; conditions: H9c2, 1 µM peptide, 24 h hypoxia then 24 h normoxia, triplicates
Method: Cells were cultured with or without β-gB1 and its S-alkylated β-gB1, first under the hypoxic condition for 24 h and then at a normal oxygen environment for another 24 h. The cell viability under hypoxia-reoxygenation condition was assessed by the MTT assay.
as §2
Cells were seeded in a cell culture medium with/without β-gB1 and incubated at 37 °C, 5% CO2 overnight. The next day, the cells were locked inside a BD GasPak EZ anaerobe pouch system (BD Diagnostics, MD) and incubated at 37 °C for the next 48 h for the hypoxia condition. In addition, the cells were cultured under a normal oxygenated environment for the normoxic control. In hypoxia-reoxygenation experiments, the cells were incubated for 24 h in hypoxic conditions before being incubated for another 24 h under normoxia.
Phosphate-buffered saline (PBS) was used as a vehicle control.

SH-SY5Y cells [5] = experiment: LDH release cytotoxicity assay, SH-SY5Y; assay type: cell-based, mouse; conditions: 10 µM peptide, 48 h, 37 °C, LDH kit, 450 nm, triplicates
From the text: as §4, §2, §5

caspase-9 = experiment: Western blot of caspase-9 in SH-SY5Y cells; assay type: cell-based, human; conditions: triplicates
Method: as §1, §2, §3

In the case of `CC[C@H](C)[C@@H]1NC(=O)[C@@H]2CSSC[C@H](NC(=O)CNC(=O)[C@@H](NC(=O)[C@H](CCC(=O)O)NC(=O)[C@@H](N)Cc3ccc(O)cc3)[C@@H](C)O)C(=O)N[C@@H](CCCCN)C(=O)N[C@@H](CCCNC(=N)N)C(=O)N[C@H]3CSSC[C@@H](C(=O)O)NC(=O)[C@H](CSSC[C@H](NC3=O)C(=O)N[C@@H](Cc3ccc(O)cc3)C(=O)N[C@@H](CC(C)C)C(=O)N[C@@H](CC(=O)O)C(=O)N[C@@H](CCC(=O)O)C(=O)N[C@@H](Cc3ccc(O)cc3)C(=O)NCC(=O)N2)NC(=O)[C@H](CCCNC(=N)N)NC1=O` [β-gB1] (HELM PEPTIDE1{Y.E.T.G.C.K.R.C.C.Y.L.D.E.Y.G.C.I.R.C.C}$PEPTIDE1,PEPTIDE1,5:R3-16:R3|PEPTIDE1,PEPTIDE1,8:R3-20:R3|PEPTIDE1,PEPTIDE1,9:R3-19:R3$$$V2.0; N-terminus and C-terminus assumed), the Antimicrobial effect (Escherichia coli) is given as “does not exhibit an antimicrobial effect”, the “Expression of caspase-3 in treated cells” value (caspase-3) is given as “remained unchanged” and the “Cytotoxicity / cell-membrane damage by LDH release” value (H9c2 cells [1]) is given as “no significant cytotoxicity or cell-membrane damaging effects”. The “Cell viability (growth or death) under normoxia” value (H9c2 cells [2]) was “No change in cell viability; also recorded: no significant effect on the growth or death”, the “Cell viability (growth or death) under normoxia” value (SH-SY5Y cells [3]) was “No change in cell viability; also recorded: no significant effect on the growth or death” and the “Increase of LC3B-II/LC3B-I ratio compared to control” value (LC3B; western blot band intensity) was “about 3 fold”. For the same compound, the “Increase of expression of LC3B-II isoform vs control” value (LC3B; western blot densitometry relative to GAPDH, normalized to vehicle control, mean) was 2.8 fold, the “Expression of LC3B-I isoform vs control” value (LC3B; western blot densitometry relative to GAPDH, normalized to vehicle control) was “did not alter the expression” and the “Increase of cell survivability under hypoxia-reoxygenation” value (H9c2 cells [4]) was 24%. The “Cytotoxicity / cell-membrane damage by LDH release” value (SH-SY5Y cells [5]) was “no significant cytotoxicity or cell-membrane damaging effects” and the “Expression of caspase-9 in treated cells” value (caspase-9) was “remained unchanged”.
